In ChEMBL document CHEMBL1133062, “The synthesis and in vitro cytotoxic studies of novel bis-naphthalimidopropyl polyamine derivatives” (2000):

Key:
Assay type in all cases: functional
786-0 = assay: The compound was tested for its cytotoxic activity against the following renal cancer cell lines 786-0; settings: Homo sapiens
Breast carcinoma cell = assay: The compound was tested for its growth inhibitory activity against breast cancer cell line; settings: Homo sapiens
CNS carcinoma cell = assay: The compound was tested for its growth inhibitory activity against CNS cancer cell line; settings: Homo sapiens
Colon carcinoma cell = assay: The compound was tested for its growth inhibitory activity against colon cancer cell line; settings: Homo sapiens
EKVX = assay: The compound was tested for its cytotoxic activity against the following non small cell lung cancer cell lines EKVX; settings: Homo sapiens
HCT-15 = assay: The compound was tested for its cytotoxic activity against the following colon cancer cell lines HCT-15; settings: Homo sapiens
HL-60 = assay: The compound was tested for its growth inhibitory activity against […] cancer cell line HL60-TB; settings: Homo sapiens
Hs-578T = assay: The compound was tested for its cytotoxic activity against the following breast cancer cell lines HS 578T; settings: Homo sapiens
IGROV-1 = assay: The compound was tested for its cytotoxic activity against the following ovarian cancer cell lines IGROVI; settings: Homo sapiens
K562 = assay: The compound was tested for its cytotoxicity against the following leukemia cell line K-562; settings: Homo sapiens
[1] = tested on: Panel leukemia (Carcinoma cell lines); assay: The compound was tested for its growth inhibitory activity against leukemia cell line; settings: Homo sapiens
Lung cancer cell line = assay: The compound was tested for its growth inhibitory activity against non small cell lung cancer cell line; settings: Homo sapiens
NCI-H522 = assay: The compound was tested for its cytotoxic activity against the following non small cell lung cancer cell lines NCI-H522; settings: Homo sapiens
NCI/ADR-RES = assay: The compound was tested for its cytotoxic activity against the following breast cancer cell lines NCI / ADR-RES; settings: Homo sapiens
Ovarian carcinoma cell = assay: The compound was tested for its growth inhibitory activity against ovarian cancer cell line; settings: Homo sapiens
Prostatic carcinoma cell = assay: The compound was tested for its growth inhibitory activity against prostate cancer cell line; settings: Homo sapiens
Renal cancer cell line = assay: The compound was tested for its growth inhibitory activity against renal cancer cell line; settings: Homo sapiens
SF-268 = assay: The compound was tested for its cytotoxic activity against the following CNS cancer cell lines SF-268; settings: Homo sapiens
SW-620 = assay: The compound was tested for its cytotoxic activity against the following colon cancer cell lines SW-620; settings: Homo sapiens
SF-295 = assay: The compound was tested for its cytotoxic activity against the following CNS cancer cell lines SF-295; settings: Homo sapiens
SK-OV-3 = assay: The compound was tested for its cytotoxic activity against the following ovarian cancer cell lines SK-OV-3; settings: Homo sapiens
UO-31 = assay: The compound was tested for its cytotoxic activity against the following renal cancer cell lines UO-31; settings: Homo sapiens
[2] = Mean value for over all cell lines tested
Melanoma cell = assay: The compound was tested for its growth inhibitory activity against melanoma, human cancer cell line

Row | SMILES | GI50 (786-0) | GI50 (Breast carcinoma cell) | GI50 (CNS carcinoma cell) | GI50 (Colon carcinoma cell) | GI50 (EKVX) | GI50 (HCT-15) | GI50 (HL-60) | GI50 (Hs-578T) | GI50 (IGROV-1) | GI50 (K562) | GI50 [1] | GI50 (Lung cancer cell line) | GI50 (NCI-H522) | GI50 (NCI/ADR-RES) | GI50 (Ovarian carcinoma cell) | GI50 (Prostatic carcinoma cell) | GI50 (Renal cancer cell line) | GI50 (SF-268) | mean GI50 [2] | GI50 (Melanoma cell) | also measured
1 | Br.Br.Br.O=C1c2cccc3cccc(c23)C(=O)N1CCCNCCCCNCCCNCCCN1C(=O)c2cccc3cccc(c23)C1=O | 185 nM | 3490 nM | 1160 nM | 2350 nM | 1050 nM | 10900 nM | 156 nM | 44 nM | 267 nM | 1170 nM | 250 nM | 580 nM | 30 nM | 19500 nM | 790 nM | 460 nM | 2490 nM | 111 nM | 1420 nM | 1170 nM | GI50 (SW-620): 449 nM; GI50 (SF-295): 4780 nM; GI50 (SK-OV-3): 1310 nM; GI50 (UO-31): 10600 nM
2 | Br.Br.Br.Br.O=C1c2cccc3cccc(c23)C(=O)N1CCCNCCCNCCCCNCCCNCCCN1C(=O)c2cccc3cccc(c23)C1=O | 555 nM | 4490 nM | 4070 nM | 4230 nM | 4500 nM | 12800 nM | 33 nM | 630 nM | 856 nM | 3600 nM | 1430 nM | 3510 nM | 825 nM | 15100 nM | 6120 nM | 3460 nM | 7430 nM | 722 nM | 4310 nM | 4040 nM | GI50 (SW-620): 1160 nM; GI50 (SF-295): 5350 nM; GI50 (SK-OV-3): 10800 nM; GI50 (UO-31): 10800 nM
3 | Br.Br.O=C1c2cccc3cccc(c23)C(=O)N1CCCNCCCCNCCCN1C(=O)c2cccc3cccc(c23)C1=O | 24 nM | 2260 nM | 290 nM | 590 nM | 1370 nM | 2660 nM | 222 nM | 65 nM | 82 nM | 12 nM | 80 nM | 530 nM | 13 nM | 13100 nM | 340 nM | 130 nM | 570 nM | 29 nM | 580 nM | 440 nM | GI50 (SW-620): 37 nM; GI50 (SF-295): 488 nM; GI50 (SK-OV-3): 722 nM; GI50 (UO-31): 1910 nM
4 | Br.Br.O=C1c2cccc3cccc(c23)C(=O)N1CCCNOCCONCCCN1C(=O)c2cccc3cccc(c23)C1=O | – | 77600 nM | 65900 nM | 73200 nM | – | – | – | – | – | – | 25700 nM | 72600 nM | – | – | 81000 nM | 77600 nM | 65400 nM | – | 68600 nM | 78000 nM | –
